Source: ChEMBL document CHEMBL5729519, “Methods and composition of 4-substituted benzoylpiperazine-1-substituted carbonyls as beta-catenin/B-cell lymphoma 9 inhibitors” (2023)

Target: beta-catenin-B-cell lymphoma 9 protein complex (Homo sapiens, UniProt P35222+O00512)
Test: Alphascreen Assay: Alphascreen Assays to Determine the Apparent Kd Values for Wild-Type and Mutant β-Catenin/BCL9 InteractionsThe experimental detail using AlphaScreen to determine the apparent Kd values for β-catenin/BCL9 and β-catenine/E-cadherin PPIs has been described previously (Zhang et al. (2015) Anal. Biochem. 469: 43-53). The concentrations of mutant β-catenin proteins used in the assays were the same as that of wild-type β-catenin.
Type: protein-complex assay

beta-catenin-B-cell lymphoma 9 protein complex, sequence (O00512 whole entry, stated change not applied): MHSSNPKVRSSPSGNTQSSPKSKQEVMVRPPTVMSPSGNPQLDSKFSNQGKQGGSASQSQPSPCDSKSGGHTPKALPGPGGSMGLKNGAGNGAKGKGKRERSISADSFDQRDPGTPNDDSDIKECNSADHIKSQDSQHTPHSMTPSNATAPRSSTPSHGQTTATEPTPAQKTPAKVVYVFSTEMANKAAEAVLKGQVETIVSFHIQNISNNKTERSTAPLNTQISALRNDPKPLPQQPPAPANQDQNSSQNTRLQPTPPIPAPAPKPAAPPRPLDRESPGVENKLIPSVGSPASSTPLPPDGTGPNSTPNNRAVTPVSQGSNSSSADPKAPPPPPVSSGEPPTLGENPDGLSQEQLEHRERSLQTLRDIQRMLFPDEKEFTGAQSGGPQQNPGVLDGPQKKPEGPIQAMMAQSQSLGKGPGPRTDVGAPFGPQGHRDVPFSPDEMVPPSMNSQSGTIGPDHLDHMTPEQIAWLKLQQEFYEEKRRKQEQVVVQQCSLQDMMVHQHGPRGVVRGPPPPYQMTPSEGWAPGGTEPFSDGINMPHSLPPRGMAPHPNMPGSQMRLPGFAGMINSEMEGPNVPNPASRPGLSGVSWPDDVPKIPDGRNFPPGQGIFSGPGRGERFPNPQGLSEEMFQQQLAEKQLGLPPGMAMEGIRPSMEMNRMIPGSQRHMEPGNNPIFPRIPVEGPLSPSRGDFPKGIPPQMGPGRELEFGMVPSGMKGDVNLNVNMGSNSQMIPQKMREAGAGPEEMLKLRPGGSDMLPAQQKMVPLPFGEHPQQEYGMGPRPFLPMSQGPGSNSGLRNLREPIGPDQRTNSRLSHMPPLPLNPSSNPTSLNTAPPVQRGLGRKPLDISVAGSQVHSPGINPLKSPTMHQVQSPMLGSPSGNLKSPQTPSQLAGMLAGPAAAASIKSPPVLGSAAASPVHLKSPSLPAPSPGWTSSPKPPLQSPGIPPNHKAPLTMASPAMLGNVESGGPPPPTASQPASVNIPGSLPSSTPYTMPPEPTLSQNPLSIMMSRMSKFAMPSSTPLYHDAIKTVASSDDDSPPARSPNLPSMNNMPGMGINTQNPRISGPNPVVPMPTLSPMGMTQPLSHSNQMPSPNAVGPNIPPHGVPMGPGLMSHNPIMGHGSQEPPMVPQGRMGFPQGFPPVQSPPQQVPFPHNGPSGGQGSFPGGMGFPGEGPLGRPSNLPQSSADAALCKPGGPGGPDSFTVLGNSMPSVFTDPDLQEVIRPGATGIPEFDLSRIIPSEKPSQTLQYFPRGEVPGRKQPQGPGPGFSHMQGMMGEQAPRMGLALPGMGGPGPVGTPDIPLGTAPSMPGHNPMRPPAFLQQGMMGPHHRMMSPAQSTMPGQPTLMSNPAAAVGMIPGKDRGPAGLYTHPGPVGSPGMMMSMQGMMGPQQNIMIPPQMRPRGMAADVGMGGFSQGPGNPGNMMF
beta-catenin-B-cell lymphoma 9 protein complex, sequence (P35222 2-781 limits assumed, stated change not applied): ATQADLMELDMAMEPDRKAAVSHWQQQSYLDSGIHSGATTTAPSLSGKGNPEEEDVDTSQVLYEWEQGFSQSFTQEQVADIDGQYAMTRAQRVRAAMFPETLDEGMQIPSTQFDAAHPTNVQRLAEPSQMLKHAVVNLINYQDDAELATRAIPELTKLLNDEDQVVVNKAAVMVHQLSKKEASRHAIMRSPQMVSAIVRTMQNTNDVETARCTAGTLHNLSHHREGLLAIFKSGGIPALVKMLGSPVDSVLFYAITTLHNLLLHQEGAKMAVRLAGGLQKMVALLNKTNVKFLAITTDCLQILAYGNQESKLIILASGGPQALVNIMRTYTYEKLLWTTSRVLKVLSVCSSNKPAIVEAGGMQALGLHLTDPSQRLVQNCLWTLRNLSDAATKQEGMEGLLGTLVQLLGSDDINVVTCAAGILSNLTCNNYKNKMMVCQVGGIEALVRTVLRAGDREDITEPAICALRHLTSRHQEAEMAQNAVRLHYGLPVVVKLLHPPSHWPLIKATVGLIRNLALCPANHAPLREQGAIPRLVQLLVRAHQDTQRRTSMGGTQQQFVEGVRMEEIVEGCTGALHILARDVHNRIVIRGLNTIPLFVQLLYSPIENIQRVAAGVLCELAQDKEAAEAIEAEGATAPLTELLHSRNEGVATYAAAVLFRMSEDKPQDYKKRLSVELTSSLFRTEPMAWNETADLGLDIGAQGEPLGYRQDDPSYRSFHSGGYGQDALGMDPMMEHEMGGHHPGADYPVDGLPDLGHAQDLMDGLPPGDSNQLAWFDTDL

CC(C)c1cc2c(c(O)c1O)[C@@]1(C(=O)O)CCCC(C)(C)[C@@H]1CC2
Ki: 5.3 µM
